Patent publication US20220257557A1, “PHARMACEUTICAL COMPOSITION FOR PREVENTING OR TREATING NEUROLOGICAL DISEASES” (GLACEUM INC., priority 2019, published 2022)

How the values were obtained:
[1] = biological target: T1, rePON1 (PON1, paraoxonase 1) (Homo sapiens, UniProt P27169); test: Prevention of inhibition of PON1 activity by oxidized linolenic acid (TBBL substrate); format: biochemical
T1 construct: purchased Thermo Corp. RP-75678
Procedure, shortened: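 Recombinant PON1 preincubated 30 min at room temperature with compound (30 μM) in 50 mM Tris-HCl/1 mM CaCl2, then exposed to oxidized linolenic acid for 2 h. Activity read with TBBL and DTNB at 420 nm, 37 °C, every 2 min for 1 h, expressed relative to uninhibited PON1.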

[2] = test system: SH-SY5Y cells; test: Reactive oxygen species generation (DCF-DA) after MPP+; format: cell-based, Human; conditions: 1 mM MPP+ 24 h, then 0.0001-1 μM compound 24 h, FIG. 4
Experimental: Human neuronal SH-SY5Y cells were cultured in a 1:1 DMEM/F12 medium containing 10% FBS (fetal bovine serum) at 37° C. under 5% carbon dioxide and 95% air. The cultured cells were transferred to a 96-well cell culture plate at a density of 2*10^4 cells/well and cultured for 24 hours. Thereafter, after replacement with serum-restricted medium (1:1 DMEM/F12 medium containing 0.5% FBS), the cells were cultured for 16 hours. Then, the cultured cells were treated with 1 mM MPP+ (1-methyl-4-phenylpyridinium) and cultured for 24 hours, thus inducing mitochondrial dysfunction in the cells. […]
Based on the principle that 2′,7′-dichlorofluorescein diacetate (DCF-DA) is oxidized to fluorescent DCF by reaction with reactive oxygen species, the level of reactive oxygen species generation was measured. […] Then, the fluorescence intensity of DCF at an excitation wavelength of 485 nm and an emission wavelength of 535 nm and the fluorescence intensity of bisbenzimide at an excitation wavelength of 335 nm and an emission wavelength of 460 nm were measured using a fluorescence analyzer to determine the level of reactive oxygen species generation. […]
The concentration of DCF determined from the fluorescence intensity was expressed as a percentage of the normal control.

[3] = test system: BV2 cells; test: iNOS and COX-2 expression after LPS (Western blot); format: cell-based; conditions: 3 h pretreatment (Table 3 amounts), LPS 1 μg/ml 24 h
Procedure, shortened: (§1)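 RAW264.7 or BV2 cells (5×10^5 cells/well) in DMEM with 10% FBS were pretreated with compound, then stimulated with 1 μg/ml LPS for 24 h. iNOS and COX-2 expression by Western blot; NO and PGE2 production measured. Compound toxicity checked by MTT.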

[4] = test system: RAW264.7 cells; test: iNOS and COX-2 expression after LPS (Western blot); format: cell-based; conditions: 3 h pretreatment (Table 3 amounts), LPS 1 μg/ml 24 h
Procedure, shortened: as §1

T1 sequence (P27169 whole entry): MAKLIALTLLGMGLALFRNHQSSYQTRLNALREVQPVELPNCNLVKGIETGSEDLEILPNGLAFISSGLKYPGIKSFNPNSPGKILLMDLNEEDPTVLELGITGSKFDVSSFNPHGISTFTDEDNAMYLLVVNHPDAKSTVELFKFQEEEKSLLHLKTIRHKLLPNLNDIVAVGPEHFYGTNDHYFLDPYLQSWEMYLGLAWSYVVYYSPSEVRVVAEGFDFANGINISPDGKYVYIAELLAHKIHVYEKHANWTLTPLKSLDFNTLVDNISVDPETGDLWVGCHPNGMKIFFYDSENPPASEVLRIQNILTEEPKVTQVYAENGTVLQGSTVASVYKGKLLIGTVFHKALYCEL

CCOc1ccc(C2COc3c(ccc4c3CCC(C)(C)O4)C2)c(O)c1 (centres unmarked) [Formula III-1, 2-(8,8-dimethyl-2,3,4,8,9,10-hexahydropyrano[2,3-f]chromen-3-yl)-5-ethoxyphenol]
activity at 30 µM ([1]; 30 μM compound with rePON1 30 min, then oxidized linolenic acid 2 h, TBBL substrate, normal control 100, negative control 73.64): 89%
extent to which inhibition of rePON1 activity was prevented, compared with glabridin ([1]; compound 30 μM vs glabridin 30 μM, result in words): greater
inhibition of rePON1 activity by oxidized linolenic acid ([1]; compound 30 μM, result in words): prevented
level of intracellular reactive oxygen species generation (DCF) [2]: decreased
expression level of COX-2 [3]: concentration-dependently decreased
expression level of iNOS [3]: concentration-dependently decreased
expression level of COX-2 [4]: concentration-dependently decreased
expression level of iNOS [4]: concentration-dependently decreased
